Tests used:
GBM8401 = assay: MTT assay, GBM8401 tumor cell; conditions: for Cell survival rate (%) GBM8401: concentration 10 μM, tumor cell
M14 = assay: NCI 60-cell drug screen, Melanoma M14; format: cell-based, human; conditions: 1.00E−5 Molar
CAKI-1 = assay: NCI 60-cell drug screen, Renal Cancer CAKI-1; format: cell-based, human; conditions: 1.00E−5 Molar
SNB-19 = assay: NCI 60-cell drug screen, CNS Cancer SNB-19; format: cell-based, human; conditions: 1.00E−5 Molar
HL-60(TB) = assay: NCI 60-cell drug screen, Leukemia HL-60(TB); format: cell-based, human; conditions: 1.00E−5 Molar
SN12C = assay: NCI 60-cell drug screen, Renal Cancer SN12C; format: cell-based, human; conditions: 1.00E−5 Molar
SF-295 = assay: NCI 60-cell drug screen, CNS Cancer SF-295; format: cell-based, human; conditions: 1.00E−5 Molar
ACHN = assay: NCI 60-cell drug screen, Renal Cancer ACHN; format: cell-based, human; conditions: 1.00E−5 Molar
NCI-H460 = assay: NCI 60-cell drug screen, Non-Small Cell Lung Cancer NCI-H460; format: cell-based, human; conditions: 1.00E−5 Molar
OVCAR-5 = assay: NCI 60-cell drug screen, Ovarian Cancer OVCAR-5; format: cell-based, human; conditions: 1.00E−5 Molar
TK-10 = assay: NCI 60-cell drug screen, Renal Cancer TK-10; format: cell-based, human; conditions: 1.00E−5 Molar
HS 578T = assay: NCI 60-cell drug screen, Breast Cancer HS 578T; format: cell-based, human; conditions: 1.00E−5 Molar
OVCAR-3 = assay: NCI 60-cell drug screen, Ovarian Cancer OVCAR-3; format: cell-based, human; conditions: 1.00E−5 Molar
K-562 = assay: NCI 60-cell drug screen, Leukemia K-562; format: cell-based, human; conditions: 1.00E−5 Molar
SK-OV-3 = assay: NCI 60-cell drug screen, Ovarian Cancer SK-OV-3; format: cell-based, human; conditions: 1.00E−5 Molar
SF-268 = assay: NCI 60-cell drug screen, CNS Cancer SF-268; format: cell-based, human; conditions: 1.00E−5 Molar
SR = assay: NCI 60-cell drug screen, Leukemia SR; format: cell-based, human; conditions: 1.00E−5 Molar
NCI-H522 = assay: NCI 60-cell drug screen, Non-Small Cell Lung Cancer NCI-H522; format: cell-based, human; conditions: 1.00E−5 Molar
UACC-62 = assay: NCI 60-cell drug screen, Melanoma UACC-62; format: cell-based, human; conditions: 1.00E−5 Molar
PC-3 = assay: NCI 60-cell drug screen, Prostate Cancer PC-3; format: cell-based, human; conditions: 1.00E−5 Molar
HT29 = assay: NCI 60-cell drug screen, Colon Cancer HT29; format: cell-based, human; conditions: 1.00E−5 Molar
HCT-116 = assay: NCI 60-cell drug screen, Colon Cancer HCT-116; format: cell-based, human; conditions: 1.00E−5 Molar
BT-549 = assay: NCI 60-cell drug screen, Breast Cancer BT-549; format: cell-based, human; conditions: 1.00E−5 Molar
MDA-MB-468 = assay: NCI 60-cell drug screen, Breast Cancer MDA-MB-468; format: cell-based, human; conditions: 1.00E−5 Molar
HCC-2998 = assay: NCI 60-cell drug screen, Colon Cancer HCC-2998; format: cell-based, human; conditions: 1.00E−5 Molar
[1] = test system: SVG p12, GBM8401 and GBM8901; assay: MTT assay, normal cell versus tumor cells (categories 39-3 to 39-7); conditions: tumor cell survival rate less than 80%; for category 39-3: survival rate higher than 80% for normal cell SVG p12 and inhibits growth of both tumor cells GBM8401 and GBM8901: FIG. 5A
[2] = test system: telomerase (total cell lysates of lung cancer cell line H1299); assay: Telomeric Repeat Amplification Protocol (TRAP) assay, screen of telomerase inhibitors; format: biochemical, human; conditions: 10 μM
Description: Telomeric Repeat Amplification Protocol (TRAP) Assay:
Telomerase activity was detected by a modified version of the general TRAP protocol. Telomerase products were resolved by 10% polyacrylamide gel electrophoresis and visualized by staining with SYBER Green. As a source of telomerase, the total cell lysates derived from lung cancer cell line H1299 cells were used. Protein concentration of the lysates was assayed using Bio-Rad protein assay kit using BSA standards.
In the TRAP assay, if a compound can stabilize the G-quadruplex structure such that telomerase can not act on telomere, then the effect of inhibiting the telomerase can be achieved. In the FIG. 2A to FIG. 2C, DMSO treatment represents as the positive control group (P); while a negative control group (N) used 5 μl of 0.1 mg/ml RNase A (CLONTECH) in the assay. It could be observed that a number of telomeric fragments were detected in the positive control group (P), while none was detected in the negative control group (N). 10 μM was selected as the concentration used to screen compounds.

Structure (SMILES)	Cell survival rate (%) GBM8401 (GBM8401) [%]	Growth Percent, M14 (M14) [%]	Growth Percent, SNB-19 (SNB-19) [%]	Growth Percent, HL-60(TB) (HL-60(TB)) [%]	Growth Percent, SN12C (SN12C) [%]	Growth Percent, SF-295 (SF-295) [%]	Growth Percent, ACHN (ACHN) [%]	Growth Percent, NCI-H460 (NCI-H460) [%]	Growth Percent, OVCAR-5 (OVCAR-5) [%]	Growth Percent, TK-10 (TK-10) [%]	Growth Percent, K-562 (K-562) [%]	Growth Percent, SK-OV-3 (SK-OV-3) [%]	Growth Percent, SF-268 (SF-268) [%]	Growth Percent, SR (SR) [%]	Growth Percent, NCI-H522 (NCI-H522) [%]	Growth Percent, UACC-62 (UACC-62) [%]	Growth Percent, PC-3 (PC-3) [%]	Growth Percent, HCT-116 (HCT-116) [%]	Growth Percent, BT-549 (BT-549) [%]	Growth Percent, HCC-2998 (HCC-2998) [%]	also measured
O=C1c2ccccc2C(=O)c2c1ccc1nc(S)[nH]c21 [f1-0, 2-Mercapto-1(3)H-anthra[1,2-d]imidazole-6,11-dione]	86 ± 25	101.06	91.30	97.58	87.98	118.09	96.23	98.61	129.22	111.74	108.55	103.17	90.30	124.87	96.06	84.17	78.80	96.31	114.30	113.65	Growth Percent, CAKI-1 (CAKI-1): 91.23%; Growth Percent, HS 578T (HS 578T): 103.53%; Growth Percent, OVCAR-3 (OVCAR-3): 86.94%; Growth Percent, HT29 (HT29): 103.79%; Growth Percent, MDA-MB-468 (MDA-MB-468): 87.69%
CCSc1nc2ccc3c(c2[nH]1)C(=O)c1ccccc1C3=O [f1-1, 2-(Ethylthio)-1H-anthra[1,2-d]imidazole-6,11-dione]	42 ± 20	67.07	87.90	62.64	67.91	100.85	37.57	38.83	85.38	74.09	86.29	24.72	75.67	129.31	78.60	47.64	53.79	68.78	55.80	89.42	Growth Percent, CAKI-1 (CAKI-1): −8.01%; Growth Percent, HS 578T (HS 578T): 85.44%; category 39-3: survival rate higher than 80% for normal cell SVG p12 and inhibits growth of both tumor cells GBM8401 and GBM8901 [1]: in this category; Growth Percent, OVCAR-3 (OVCAR-3): 69.27%; Growth Percent, HT29 (HT29): 75.18%; Growth Percent, MDA-MB-468 (MDA-MB-468): 35.36%
CCCSc1nc2ccc3c(c2[nH]1)C(=O)c1ccccc1C3=O [f1-2, 2-(propylthio)-1H-anthra[1,2-d]imidazole-6,11-dione]	62 ± 18	89.99	82.03	74.23	80.41	37.25	27.16	68.12	99.67	35.55	62.88	38.92	47.81	71.03	72.38	51.07	66.76	47.69	76.00	81.92	Growth Percent, CAKI-1 (CAKI-1): 45.47%; Growth Percent, HS 578T (HS 578T): 33.33%; category 39-3: survival rate higher than 80% for normal cell SVG p12 and inhibits growth of both tumor cells GBM8401 and GBM8901 [1]: in this category; Growth Percent, OVCAR-3 (OVCAR-3): 62.71%; Growth Percent, HT29 (HT29): 75.10%
O=C1c2ccccc2C(=O)c2c1ccc1nc(SCCN3CCCC3)[nH]c21 [f1-11]	78 ± 10	70.87	60.47	37.41	52.94	76.91	34.58	34.08	87.49	36.86	26.94	55.57	42.04	20.25	81.51	80.95	6.90	38.81	78.62	71.50	category 39-5: survival rate higher than 80% for normal cell SVG p12 and only inhibits growth of tumor cell GBM8901 ([1]; FIG. 5C): in this category; Growth Percent, MDA-MB-468 (MDA-MB-468): 67.90%
CN(C)CCCSc1nc2ccc3c(c2[nH]1)C(=O)c1ccccc1C3=O [f1-15, 2-(3-(dimethylamino)propylthio)-1H-anthra[1,2-d]imidazole-6,11-dione]	8 ± 11	77.32	79.67	12.74	37.66	76.03	24.30	23.20	87.88	31.68	−31.59	32.36	53.13	3.09	69.28	75.39	36.71	27.58	75.75	72.67	Growth Percent, CAKI-1 (CAKI-1): −14.89%; Growth Percent, HS 578T (HS 578T): 69.32%; Growth Percent, OVCAR-3 (OVCAR-3): 59.33%; Growth Percent, HT29 (HT29): 17.84%
O=C1c2ccccc2C(=O)c2c1ccc1nc3n(c21)CCS3 [f3-1, 2-(2-N-ethylthio)-1H-anthra[1,2-d]imidazole-6,11-dione]	42 ± 16	78.50	74.47	78.84	74.93	78.56	59.35	59.46	105.31	58.78	78.71	87.43	56.15	60.62	80.62	73.06	93.92	68.43	87.90	94.76	inhibitory effect against tumor cell GBM8401 (GBM8401; survival rate less than 80%): exhibited inhibitory effect against tumor cell GBM8401; inhibition effect against telomerase [2]: exhibited inhibition effect against telomerase; Growth Percent, MDA-MB-468 (MDA-MB-468): 69.68%
